The values below are quoted from earlier work in patent US20260114463A1, “COATING LIQUID COMPOSITION, PRODUCTION METHOD THEREFOR, AND LIQUID CONTAINING LOW-TEMPERATURE DAMAGE INHIBITOR” (Mitsubishi Chemical Corporation, priority 2023, published 2026).

For the series the following is noted: raw material data.

Consider Glycerin monocaprylate [Example M-100], for which the HLB is 7.0.
